Results on 16 compounds are retold here after patent US10005817B2, “Peptide pharmaceuticals” (EUMEDERIS PHARMACEUTICALS, INC., priority 2012, dated 2018).

Non-standard residues stand in square brackets, D forms with d. Residues, ends and D or L forms follow the SMILES beside them. *: point of attachment. βGlcA(1-O-hexadecyl) = CCCCCCCCCCCCCCCCO[C@@H]1O[C@H](C(=O)*)[C@@H](O)[C@H](O)[C@H]1O; βDGlcA(1-OC18H37) = CCCCCCCCCCCCCCCCCCO[C@@H]1O[C@H](C(=O)*)[C@@H](O)[C@H](O)[C@H]1O; GlcA(β-D,1-O-dodecyl) = CCCCCCCCCCCCO[C@@H]1O[C@H](C(=O)*)[C@@H](O)[C@H](O)[C@H]1O; GlcA(β1-O-octyl) = CCCCCCCCO[C@@H]1O[C@H](C(=O)*)[C@@H](O)[C@H](O)[C@H]1O; βGlcA(1-OMe) = CO[C@@H]1O[C@H](C(=O)*)[C@@H](O)[C@H](O)[C@H]1O; Dmt = Cc1cc(O)cc(C)c1C[C@H](N)C(=O)O; hArg = N=C(N)NCCCC[C@H](N)C(=O)O; Tic = O=C(O)[C@@H]1Cc2ccccc2CN1; Nle = CCCC[C@H](N)C(=O)O; Ac5c = NC1(C(=O)O)CCCC1; Aib = CC(C)(N)C(=O)O; NHBn = c1ccc(CN*)cc1 Bounds are passed on as bounds.

What is called EC50 is the concentration giving half of the maximal effect.

The conditions of data set [1]: in water; cited from earlier work.
For a further data set, the target named is T1, PTH receptor (PTHR1) (Homo sapiens, UniProt Q03431).
T1 construct: Cerep SA
T1 sequence (Q03431 27-593): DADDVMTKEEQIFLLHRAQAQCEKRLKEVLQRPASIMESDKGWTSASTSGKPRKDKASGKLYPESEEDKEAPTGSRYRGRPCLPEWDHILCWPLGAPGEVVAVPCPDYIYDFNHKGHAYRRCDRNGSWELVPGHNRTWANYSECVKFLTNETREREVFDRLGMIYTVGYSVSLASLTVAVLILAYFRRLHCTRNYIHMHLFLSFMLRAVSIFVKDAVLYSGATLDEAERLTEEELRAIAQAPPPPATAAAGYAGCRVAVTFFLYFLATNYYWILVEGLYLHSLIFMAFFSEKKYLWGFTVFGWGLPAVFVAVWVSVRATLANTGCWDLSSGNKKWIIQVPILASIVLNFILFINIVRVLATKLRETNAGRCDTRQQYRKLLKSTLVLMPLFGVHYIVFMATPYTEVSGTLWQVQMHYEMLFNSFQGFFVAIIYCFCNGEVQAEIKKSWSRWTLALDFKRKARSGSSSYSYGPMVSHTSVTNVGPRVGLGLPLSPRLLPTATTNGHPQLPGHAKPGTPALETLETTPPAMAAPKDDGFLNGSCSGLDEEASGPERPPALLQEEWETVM
Kind of data set: PTH1 cellular assay, cAMP, agonist mode (SaOS2 cells, Cerep). Format: cell-based. To be noted: for Emax: SAOS-2, read-out: Maximal response (% PTHrP). The procedure:
Compounds were weighed precisely in an amount of approximately 1 mg and assayed in standard cellular assays (cerep SA). The readout is the amount of cAMP generated in the cells treated with the test compounds, in either agonist or antagonist mode.
Compounds were dissolved in water and diluted in assay buffer containing 1% bovine serum albumin.

The target of a further data set is T2, delta2 opioid receptor (Mus musculus, UniProt P32300).
T2 construct: Cerep
T2 sequence (P32300 whole entry): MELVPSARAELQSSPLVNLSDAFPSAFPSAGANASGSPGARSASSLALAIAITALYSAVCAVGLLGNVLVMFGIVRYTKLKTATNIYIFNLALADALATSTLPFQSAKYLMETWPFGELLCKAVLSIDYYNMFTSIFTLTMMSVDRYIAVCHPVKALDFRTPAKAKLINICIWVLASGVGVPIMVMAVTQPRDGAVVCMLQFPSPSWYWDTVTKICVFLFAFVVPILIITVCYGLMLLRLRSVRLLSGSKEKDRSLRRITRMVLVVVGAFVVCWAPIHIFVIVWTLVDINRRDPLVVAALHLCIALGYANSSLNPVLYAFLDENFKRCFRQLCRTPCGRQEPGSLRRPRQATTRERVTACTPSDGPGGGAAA
Briefly: delta2 opioid receptor cellular assay (DOP), antagonist mode vs DPDPE, cAMP readout. In kind it is cell-based. The procedure: (§1) Compounds were weighed precisely in an amount of approximately 2 mg and assayed in standard cellular assays by the contract research organization Cerep, Inc. (Pullman, Wash.) as executed at their subsidiary, Cerep SA (Le Bois l'Eveque, France). The readout is the amount of cAMP generated in the cells treated with the test compounds, in either agonist or antagonist mode. The assays used were the mu opioid receptor cellular assay (MOP in agonist and antagonist mode), the delta2 opioid receptor cellular assay (DOP in agonist and antagonist mode) and the kappa opioid receptor cellular assay (KOP in agonist and antagonist mode). The assays used are described in Wang, J. B., et al. (1994) FEBS Lett 338: 217-222, Law, P. Y. and Loh, H. H. (1993) Mol Pharmacol 43: 684-693, and Avidor-Reiss, T., et al. (1995) FEBS Lett 361: 70-74. The stimulant for the cells in the DOR antagonist assay was 3×10E-8M DPDPE, a well-accepted DOR literature standard.

The next data set addresses T3, mu opioid receptor (Homo sapiens, UniProt P35372).
T3 construct: Cerep
Briefly: mu opioid receptor cellular assay (MOP), agonist mode, cAMP readout (Cerep). Format: cell-based. The procedure:
as §1

T3 sequence (P35372 whole entry): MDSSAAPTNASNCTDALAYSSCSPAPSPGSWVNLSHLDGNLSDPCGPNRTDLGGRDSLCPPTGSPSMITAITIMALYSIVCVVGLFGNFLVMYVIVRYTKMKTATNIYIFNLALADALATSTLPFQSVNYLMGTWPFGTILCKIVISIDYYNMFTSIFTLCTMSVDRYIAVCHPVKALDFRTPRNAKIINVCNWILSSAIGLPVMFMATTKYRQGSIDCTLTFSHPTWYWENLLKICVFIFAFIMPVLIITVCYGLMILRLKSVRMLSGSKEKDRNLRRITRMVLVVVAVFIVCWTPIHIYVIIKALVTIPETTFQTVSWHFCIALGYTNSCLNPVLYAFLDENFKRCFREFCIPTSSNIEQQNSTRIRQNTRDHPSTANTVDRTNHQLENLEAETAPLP

For `CCCCCCCCCCCCCCO[C@@H]1O[C@H](CO)[C@@H](O[C@@H]2O[C@@H](CO)[C@H](O)[C@@H](O)[C@@H]2O)[C@H](O)[C@H]1O` (stereo in doubt) [Tetradecyl maltoside], the CMC in data set [1] is 0.01 mM.
As for `CCCCCCCCCCCCCO[C@@H]1O[C@H](CO)[C@@H](OC2OC(CO)C(O)C(O)C2O)[C@H](O)[C@H]1O` (stereo in doubt) [Tridecyl maltoside], the CMC in data set [1] is recorded as 0.03 mM.
Regarding `CCCCCCCCCCO[C@@H]1O[C@H](CO)[C@@H](O[C@H]2O[C@H](CO)[C@@H](O)[C@H](O)[C@H]2O)[C@H](O)[C@H]1O` [Decyl maltoside], in data set [1], the CMC is on record as 1.8 mM.
As for `CCCCCCCCCCCCO[C@@H]1O[C@H](CO)[C@@H](O[C@H]2O[C@H](CO)[C@@H](O)[C@H](O)[C@H]2O)[C@H](O)[C@H]1O` [Dodecyl-β-D-maltoside], the CMC in data set [1] was 0.17 mM.
For `CCCCCCCCCCCCCCCCO[C@@H]1O[C@H](C(=O)NCCCC[C@H](NC(=O)C(C)(C)NC(=O)[C@H](CCC(N)=O)NC(=O)[C@@H](NC(=O)[C@H](Cc2c[nH]c3ccccc23)NC(=O)[C@H](CCCNC(=N)N)NC(=O)[C@H](C)NC(=O)[C@H](CCCCNC(=N)N)NC(=O)[C@H](CCC(N)=O)NC(=O)[C@H](Cc2c[nH]cn2)NC(=O)[C@H](CCCC)NC(=O)[C@H](CC(C)C)NC(=O)[C@H](CCC(N)=O)NC(=O)[C@@H](NC(=O)[C@H](CCC(=O)O)NC(=O)C(C)(C)NC(=O)[C@@H](NC(=O)C2(N)CCCC2)C(C)C)[C@@H](C)CC)[C@@H](C)CC)C(=O)NC(C)(C)C(N)=O)[C@@H](O)[C@H](O)[C@H]1O` [EU-287, Ac5c1-VaL2-Aib3-Glu4-Ile5-Gln6-Leu7-Nle8-His9-Gln10-hArg11-Ala12-Arg13-TrP14-Ile15-Gln16-Aib17-Lys(N-epsilon-1′-hexadecylbeta-D-glucuronyL)18-Aib19-NH2] (H-[Ac5c]V[Aib]EIQL[Nle]HQ[hArg]ARWIQ[Aib]K(βGlcA(1-O-hexadecyl))[Aib]-NH2), at PTH receptor (PTHR1), the Characterization result is given as “agonist”, the EC50 is less than 1 nM and the Emax was determined as 128%.
Take `CCCCCCCCCCCCCCCCCCO[C@@H]1O[C@H](C(=O)NCCCC[C@H](NC(=O)C(C)(C)NC(=O)[C@H](CCC(N)=O)NC(=O)[C@@H](NC(=O)[C@H](Cc2c[nH]c3ccccc23)NC(=O)[C@H](CCCNC(=N)N)NC(=O)[C@H](C)NC(=O)[C@H](CCCCNC(=N)N)NC(=O)[C@H](CCC(N)=O)NC(=O)[C@H](Cc2c[nH]cn2)NC(=O)[C@H](CCCC)NC(=O)[C@H](CC(C)C)NC(=O)[C@H](CCC(N)=O)NC(=O)[C@@H](NC(=O)[C@H](CCC(=O)O)NC(=O)C(C)(C)NC(=O)[C@@H](NC(=O)C2(N)CCCC2)C(C)C)[C@@H](C)CC)[C@@H](C)CC)C(=O)NC(C)(C)C(N)=O)[C@@H](O)[C@H](O)[C@H]1O` [EU-288, Ac5c1-VaL2-Aib3-Glu4-Ile5-Gln6-Leu7-Nle8-His9-Gln10-hArg11-Ala12-Arg13-Trp14-Ile15-Gln16-Aib17-Lys(N-epsilon-1′-octadecylbeta-D-glucuronyl)18-Aib19-NH2] (H-[Ac5c]V[Aib]EIQL[Nle]HQ[hArg]ARWIQ[Aib]K(βDGlcA(1-OC18H37))[Aib]-NH2): on PTH receptor (PTHR1), the Characterization entry is on record as “agonist”, the EC50 is less than 1 nM and the Emax is 130%.
Turning to `CCCCCCCCCCCCO[C@@H]1O[C@H](C(=O)NCCCC[C@H](NC(=O)[C@H](Cc2ccccc2)NC(=O)[C@@H]2Cc3ccccc3CN2C(=O)[C@@H](N)Cc2c(C)cc(O)cc2C)C(N)=O)[C@@H](O)[C@H](O)[C@H]1O` [EU-A179, Dmt-Tic-Phe-Lys(C12-glucuronyl)-NH2] (H-[Dmt][Tic]FK(GlcA(β-D,1-O-dodecyl))-NH2), at delta2 opioid receptor, the “Characterization (DOP)” value was “pure DOP antag”. Also, the “Characterization (MOP)” value at mu opioid receptor is given as “Pure MOP Ag;”.
In the case of `CCCCCCCCO[C@@H]1O[C@H](C(=O)NCCCC[C@H](NC(=O)[C@H](Cc2ccccc2)NC(=O)[C@@H]2Cc3ccccc3CN2C(=O)[C@@H](N)Cc2c(C)cc(O)cc2C)C(N)=O)[C@@H](O)[C@H](O)[C@H]1O` [EU-A180, Dmt-Tic-Phe-Lys(C8-glucuronyl)-NH2] (H-[Dmt][Tic]FK(GlcA(β1-O-octyl))-NH2), the “Characterization (DOP)” value on delta2 opioid receptor is given as “pure DOP antag”. Further, at mu opioid receptor, the “Characterization (MOP)” value is “Pure MOP Ag;” and the EC50 was found to be 36 nM.
The like results for `CO[C@@H]1O[C@H](C(=O)NCCCC[C@H](NC(=O)[C@H](Cc2ccccc2)NC(=O)[C@H](Cc2ccccc2)NC(=O)[C@@H]2Cc3ccccc3CN2C(=O)[C@@H](N)Cc2c(C)cc(O)cc2C)C(N)=O)[C@@H](O)[C@H](O)[C@H]1O` [EU-A189, 2′,6′-dimethyl-L-tyrosyl-L-1,2,3,4-tetrahydroisoquinoline-3-carbonyl-L-phenylalanyl-L-phenylalanyl-Nε-(1′-methyl β-D-glucuronyl)-L-lysyl-amide] were, in that order, “pure DOP antag”, “Pure MOP Ag;” and 41 nM.
As for `CCCCCCCCCCCCO[C@@H]1O[C@H](C(=O)NCCCC[C@H](NC(=O)[C@H](Cc2ccccc2)NC(=O)[C@H](Cc2ccccc2)NC(=O)[C@@H]2Cc3ccccc3CN2C(=O)[C@@H](N)Cc2c(C)cc(O)cc2C)C(N)=O)[C@@H](O)[C@H](O)[C@H]1O` [EU-A190, Dmt-Tic-Phe-Phe-Lys(C12-glucuronyl)-NH2], the “Characterization (DOP)” value on delta2 opioid receptor is “pure DOP antag”. Further, the “Characterization (MOP)” value at mu opioid receptor is “Pure MOP Ag;”.
For the compound `CO[C@@H]1O[C@H](C(=O)NCCCC[C@H](NC(=O)[C@H](Cc2ccccc2)NC(=O)[C@@H]2Cc3ccccc3CN2C(=O)[C@@H](N)Cc2c(C)cc(O)cc2C)C(=O)NC(C)(C)C(N)=O)[C@@H](O)[C@H](O)[C@H]1O` [EU-A600, Dmt-Tic-Phe-Lys(C1-glucuronyl)-Aib-NH2] (H-[Dmt][Tic]FK(βGlcA(1-OMe))[Aib]-NH2; N-terminus assumed), at delta2 opioid receptor, the “Characterization (DOP)” value is listed as “pure DOP antag”. In addition, on mu opioid receptor, the “Characterization (MOP)” value is recorded as “Pure MOP Ag;” and the EC50 was 110 nM.
On to `CO[C@@H]1O[C@H](C(=O)NCCCC[C@@H](NC(=O)[C@H](Cc2ccccc2)NC(=O)[C@@H]2Cc3ccccc3CN2C(=O)[C@@H](N)Cc2c(C)cc(O)cc2C)C(N)=O)[C@@H](O)[C@H](O)[C@H]1O` [EU-A615, Dmt-Tic-Phe-D-Lys(C1-glucuronyl)-Aib-NH2] (H-[Dmt][Tic]F[dK](βGlcA(1-OMe))-NH2), for which the “Characterization (DOP)” value on delta2 opioid receptor is listed as “pure DOP antag”. For the same compound, on mu opioid receptor, the “Characterization (MOP)” value is listed as “Pure MOP Ag;”.
In the case of `CO[C@@H]1O[C@H](C(=O)NCCCC[C@H](NC(=O)[C@H](Cc2ccccc2)NC(=O)[C@@H]2Cc3ccccc3CN2C(=O)[C@@H](N)Cc2c(C)cc(O)cc2C)C(=O)NCc2ccccc2)[C@@H](O)[C@H](O)[C@H]1O` [EU-A620, Dmt-Tic-Phe-Lys(C1-glucuronyl)-NHCH2Ph] (H-[Dmt][Tic]FK(βGlcA(1-OMe))-NHBn), the “Characterization (DOP)” value at delta2 opioid receptor is given as “pure DOP antag”. For the same compound, at mu opioid receptor, the “Characterization (MOP)” value is “Pure MOP Ag;” and the EC50 was 480 nM.
For the compound `CO[C@@H]1O[C@H](C(=O)NCCCC[C@@H](NC(=O)[C@H](Cc2ccccc2)NC(=O)[C@@H]2Cc3ccccc3CN2C(=O)[C@@H](N)Cc2c(C)cc(O)cc2C)C(=O)NCc2ccccc2)[C@@H](O)[C@H](O)[C@H]1O` [EU-A639, Dmt-Tic-Phe-D-Lys(C1-glucuronyl)-NHCH2Ph] (H-[Dmt][Tic]F[dK](βGlcA(1-OMe))-NHBn; N-terminus assumed), the “Characterization (DOP)” value on delta2 opioid receptor is “pure DOP antag”. In addition, at mu opioid receptor, the “Characterization (MOP)” value is “Pure MOP Ag;” and the EC50 was 280 nM.
For the compound `CCCCCCCCO[C@@H]1O[C@H](CO)[C@@H](O[C@H]2O[C@H](CO)[C@@H](O)[C@H](O)[C@H]2O)[C@H](O)[C@H]1O` [Octyl maltoside], in data set [1], the CMC is given as 19.5 mM.
For Sucrose dodecanoate, the CMC in data set [1] is recorded as 0.3 mM.
